The subject of assay [1] is human colon carcinoma cells HCT-116. The assay is described as follows: XTT in vitro cytotoxicity assay, HCT-116 human colon carcinoma cells. It counts as cell-based. As to the method: (§1) The HCT-116/VM46 cells are cells that have been previously selected for teniposide resistance and express the multi-drug resistance phenotype, including resistance to paclitaxel. Cytotoxicity was assessed in HCT-116 human colon carcinoma cells by XTT (2,3-bis(2-methoxy-4-nitro-5-sulfphenyl)-5-[(phenylamino)carbonyl]2H-tetrazolium hydroxide) assay as reported in D. A. Scudiero, et al., "Evaluation of soluble tetrazolium/formazan assay for cell growth and drug sensitivity in culture using human and other tumor cell lines," Cancer Res. 48:4827-4833, 1988. Cells were plated at 4000 cells/well in 96 well microtiter plates and 24 hours later drugs were added and serial diluted. The cells were incubated at 37° C. for 72 hours at which time the tetrazolium dye, XTT, was added. A dehydrogenase enzyme in live cells reduces the XTT to a form that absorbs light at 450 nm which can be quantitated spectrophotometrically. The greater the absorbance, the greater the number of live cells. The results are expressed as an IC50, which is the drug concentration required to inhibit cell proliferation (i.e., absorbance at 450 nm) to 50% of that of untreated control cells.
For orientation: Tetrazolium dyes change colour on reduction, which living cells bring about.

Assay [2] has as its system human colon carcinoma cells HCT-116/VM46. The assay is described as follows: XTT in vitro cytotoxicity assay, HCT-116/VM46 multi-drug resistant human colon carcinoma cells. It counts as cell-based. The method, then: as §1
[3] abbreviates: HCT-116, 72 h, read-out: IC50 HCT116 (nM).
The mark [4] stands for this setting: HCT-116/VM46, 72 h, read-out: IC50 HCT116/VM46 (nM).
Where [5] appears, read: HCT-116, XTT, 72 hours at 37° C., inhibition of cell proliferation to 50% of untreated control, read-out: IC50 HCT116.
Where [6] appears, read: HCT-116/VM46, XTT, 72 hours at 37° C., teniposide-selected cells, multi-drug resistance phenotype incl. resistance to paclitaxel, read-out: IC50 HCT116/VM46.

Each structure is given as a SMILES string. Read-outs that look alike come from different tables or passages of the source.

In the case of `CC(=O)O[C@H]1C(=O)[C@]2(C)[C@@H]3O[C@@H]3[C@H]3OC[C@@]3(OC(C)=O)[C@H]2[C@H](OC(=O)c2ccccc2)[C@]2(O)C[C@H](OC(=O)[C@H](O)[C@@H](NC(=O)c3ccccc3)c3ccco3)C(C)=C1C2(C)C` [Ic, 3'-Desphenyl-3'-(2-furyl)-6,7-α-epoxypaclitaxel], the IC50 in assay [1] (setting [3]) is 0.6 nM; in assay [2] (setting [4]), 12.3 nM.
Take `CC(=O)O[C@H]1C(=O)[C@]2(C)[C@@H]3O[C@@H]3[C@H]3OC[C@@]3(OC(C)=O)[C@H]2[C@H](OC(=O)c2ccccc2)[C@]2(O)C[C@H](OC(=O)[C@H](O)[C@H](C=C(C)C)NC(=O)OC(C)(C)C)C(C)=C1C2(C)C` [Id, 3'-N-Debenzoyl-N-t-butoxycarbonyl-3'-desphenyl-3'-isobutenyl-6,7-α-epoxypaclitaxel]: the results for the IC50 in assay [1] (setting [3]) and in assay [2] (setting [4]) were 1.3 nM and 3.3 nM, respectively.
Take `CC(=O)O[C@H]1C(=O)[C@@]2(C)[C@H]([C@H](OC(=O)c3ccccc3)[C@]3(O)C[C@H](OC(=O)[C@H](O)[C@@H](NC(=O)c4ccccc4)c4ccccc4)C(C)=C1C3(C)C)[C@]1(OC(C)=O)CO[C@@H]1C[C@@H]2O` [paclitaxel]: the values for the IC50 in assay [1] (setting [5]) and in assay [2] (setting [6]) were 1.3 to 3.5 nM and 244 to 403 nM, respectively.
Take `CC(=O)O[C@H]1C(=O)[C@]2(C)[C@@H]3O[C@@H]3[C@H]3OC[C@@]3(OC(C)=O)[C@H]2[C@H](OC(=O)c2ccccc2)[C@]2(O)C[C@H](OC(=O)[C@H](O)[C@@H](NC(=O)c3ccccc3)c3ccccc3)C(C)=C1C2(C)C` [Ia, 6,7-α-Epoxypaclitaxel]: the IC50 came to 1.2 nM in assay [1] (setting [3]) and 30.5 nM in assay [2] (setting [4]).
Regarding `CC(=O)O[C@H]1C(=O)[C@]2(C)[C@@H]3O[C@@H]3[C@H]3OC[C@@]3(OC(C)=O)[C@H]2[C@H](OC(=O)c2ccccc2)[C@]2(O)C[C@H](OC(=O)[C@H](O)[C@@H](NC(=O)OC(C)(C)C)c3ccco3)C(C)=C1C2(C)C` [Ib, 3'-N-Debenzoyl-N-t-butoxycarbonyl-3'-desphenyl-3'-(2-furyl)-6,7-α-epoxypaclitaxel], the results for the IC50 in assay [1] (setting [5]) and in assay [2] (setting [6]) were 1.3 to 3 nM and 2.8 to 13.9 nM, respectively.

The values above are taken from patent publication US5395850A, “6,7-epoxy paclitaxels” (Bristol-Myers Squibb Company, priority 1994, dated 1995).
